Reference: ChEMBL document CHEMBL5154887, “Novel CRBN-Recruiting Proteolysis-Targeting Chimeras as Degraders of Stimulator of Interferon Genes with In Vivo Anti-Inflammatory Efficacy” (J Med Chem, 2022)

Key:
[1] = target: T1, Protein cereblon/Stimulator of interferon genes protein (Homo sapiens, UniProt Q96SW2+Q86WV6); test: Protac activity at CRBN/STING in human THP-1 cells assessed as increase in STING degradation at 10 uM incubated for 48 hrs by Western blot analysis relative to control; assay type: cell-based
Target sequence in this assay (Q86WV6 whole entry, looked up): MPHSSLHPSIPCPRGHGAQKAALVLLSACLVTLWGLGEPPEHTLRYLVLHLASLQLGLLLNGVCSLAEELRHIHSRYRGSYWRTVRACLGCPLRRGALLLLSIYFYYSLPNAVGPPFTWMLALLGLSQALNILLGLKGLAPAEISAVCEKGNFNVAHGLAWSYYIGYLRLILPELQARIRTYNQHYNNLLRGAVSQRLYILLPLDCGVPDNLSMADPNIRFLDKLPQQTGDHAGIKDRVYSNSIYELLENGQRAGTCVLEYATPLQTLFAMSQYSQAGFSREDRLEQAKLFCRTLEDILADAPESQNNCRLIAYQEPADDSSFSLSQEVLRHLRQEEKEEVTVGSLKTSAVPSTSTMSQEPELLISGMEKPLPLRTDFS
Target sequence in this assay (Q96SW2 whole entry, looked up): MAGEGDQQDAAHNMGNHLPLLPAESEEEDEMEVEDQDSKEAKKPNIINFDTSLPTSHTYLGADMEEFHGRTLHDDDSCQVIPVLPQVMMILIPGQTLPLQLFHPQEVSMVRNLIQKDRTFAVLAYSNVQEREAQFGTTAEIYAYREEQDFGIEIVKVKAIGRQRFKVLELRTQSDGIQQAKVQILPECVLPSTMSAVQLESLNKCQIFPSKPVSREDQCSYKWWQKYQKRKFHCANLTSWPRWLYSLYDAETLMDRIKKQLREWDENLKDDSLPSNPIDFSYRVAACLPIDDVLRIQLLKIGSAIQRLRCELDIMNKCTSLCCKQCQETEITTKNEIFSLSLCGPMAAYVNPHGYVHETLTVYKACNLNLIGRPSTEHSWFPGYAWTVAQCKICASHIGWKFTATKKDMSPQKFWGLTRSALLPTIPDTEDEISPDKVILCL

[2] = Cytotoxicity against HEK293-A cells assessed as reduction in cell viability at <10 uM by MTT assay; assay type: toxicity, cell-based; settings: human
[3] = target: T1, Protein cereblon/Stimulator of interferon genes protein; test: Protac activity at CRBN/STING in human THP-1 cells assessed as increase in STING degradation incubated for 48 hrs by Western blot analysis; assay type: cell-based
Target sequence in this assay (Q96SW2 whole entry): as the sequence (Q96SW2 whole entry, looked up) above
Target sequence in this assay (Q86WV6 whole entry): as the sequence (Q86WV6 whole entry, looked up) above

[4] = system: L02; test: Cytotoxicity against human L02 cells assessed as reduction in cell viability at <10 uM by MTT assay; assay type: toxicity, cell-based; settings: l02, 10 µM
[5] = Cytotoxicity against mouse C17.2 cells assessed as reduction in cell viability at <10 uM by MTT assay; assay type: toxicity, cell-based; settings: c17.2, 10 µM

Activity [1]: 22%
DC50 [3]: > 10 µM
SMILES: O=C(/C=C/C(=O)Nc1ccc(NC(=O)c2ccc([N+](=O)[O-])o2)cc1)NCCCCNc1cccc2c1C(=O)N(C1CCC(=O)NC1=O)C2=O (stereo not given)
Activity [2]: Non-Toxic
Activity [4]: Non-Toxic
Activity [5]: Non-Toxic
